Earlier results on 1 compound are cited in patent US20180179476A1, “SOLVENT COMPOSITIONS FOR USE AS HEPTANE REPLACEMENTS” (TBF ENVIRONMENTAL TECHNOLOGY INC., priority 2015, published 2018).

Consider `COC(C)=O` [Methyl acetate], for which the stability result (in the presence of strong aqueous bases or aqueous acids) is on record as “not stable”. Besides, the solubility in water (room temperature) was 25%.
